# From ChEMBL document CHEMBL1155518, “Synthesis and structure-activity relationships of long-acting beta2 adrenergic receptor agonists incorporating metabolic inactivation: an antedrug approach” (J Med Chem, 2010)
# The source made the active and inactive calls. The rule behind the calls is not given here.
# Assays:
# [1] = biological target: Beta-2 adrenergic receptor (Homo sapiens, UniProt P07550)
# Description: Agonist activity at human recombinant beta2 adrenergic receptor expressed in CHO cells assessed as induction of intracellular cAMP accumulation after 30 to 45 mins
# Cavia porcellus [2] = organism: Cavia porcellus; experiment: Bronchodialatory activity against electrically-stimulated contraction in guinea pig trachea assessed as inhibition of recovery of contractile effect measured after 1 hr of drug washout; format: functional, tissue-based
# Cavia porcellus [3] = organism: Cavia porcellus; experiment: Bronchodialatory activity against electrically-stimulated contraction in guinea pig trachea assessed as inhibition of recovery of contractile effect measured after 3 hrs of drug washout; format: functional, tissue-based
# [4] = biological target: Beta-1 adrenergic receptor (Homo sapiens, UniProt P08588)
# Beta-1 adrenergic receptor, sequence (P08588 whole entry): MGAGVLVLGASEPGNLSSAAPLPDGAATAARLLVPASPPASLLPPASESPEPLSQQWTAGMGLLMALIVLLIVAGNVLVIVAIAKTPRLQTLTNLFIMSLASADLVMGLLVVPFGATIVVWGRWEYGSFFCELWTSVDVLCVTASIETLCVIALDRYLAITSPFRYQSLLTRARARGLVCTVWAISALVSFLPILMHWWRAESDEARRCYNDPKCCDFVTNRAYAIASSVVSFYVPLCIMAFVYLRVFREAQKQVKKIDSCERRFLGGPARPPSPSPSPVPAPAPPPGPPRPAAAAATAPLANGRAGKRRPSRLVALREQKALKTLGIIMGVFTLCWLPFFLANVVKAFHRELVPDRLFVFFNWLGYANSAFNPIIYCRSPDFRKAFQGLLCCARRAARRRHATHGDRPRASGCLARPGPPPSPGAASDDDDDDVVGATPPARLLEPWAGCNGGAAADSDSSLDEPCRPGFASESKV
# Description: Agonist activity at human recombinant beta-1 adrenergic receptor expressed in CHO cells assessed as induction of intracellular cAMP accumulation after 30 to 45 mins
# [5] = biological target: Beta-3 adrenergic receptor (Homo sapiens, UniProt P13945)
# Beta-3 adrenergic receptor, sequence (P13945 whole entry): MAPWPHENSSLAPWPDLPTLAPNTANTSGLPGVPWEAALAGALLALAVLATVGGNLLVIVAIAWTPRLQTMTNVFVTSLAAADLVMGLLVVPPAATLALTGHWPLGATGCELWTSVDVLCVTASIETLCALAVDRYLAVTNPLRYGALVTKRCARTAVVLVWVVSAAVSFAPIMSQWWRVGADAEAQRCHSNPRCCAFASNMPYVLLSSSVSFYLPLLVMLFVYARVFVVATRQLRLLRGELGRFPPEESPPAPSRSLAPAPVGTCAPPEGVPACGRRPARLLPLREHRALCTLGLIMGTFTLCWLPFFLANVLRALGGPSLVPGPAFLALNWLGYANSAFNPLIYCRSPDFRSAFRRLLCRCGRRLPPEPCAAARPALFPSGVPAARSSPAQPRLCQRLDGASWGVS
# Description: Agonist activity at human recombinant beta3 adrenergic receptor expressed in CHO cells assessed as induction of intracellular cAMP accumulation after 30 to 45 mins
# [6] = Bronchodialatory activity against electrically-stimulated contraction in guinea pig trachea assessed as time taken for inducing 50% maximum relaxant effect
# [7] = Plasma clearance in Han Wistar rat at 0.25 mg/kg, iv after 8 hrs by LC/MS/MS analysis; format: ADME, organism-based; parameters: dose 0.25 mg/kg, route intravenous
# [8] = Volume of distribution at steady state in Han Wistar rat at 0.25 mg/kg, iv after 8 hrs by LC/MS/MS analysis; format: ADME, organism-based; parameters: dose 0.25 mg/kg, route intravenous; settings: in vivo, read-out: Vdss
# [9] = Half life in Han Wistar rat at 0.25 mg/kg, iv by LC/MS/MS analysis; format: ADME, organism-based; parameters: dose 0.25 mg/kg, route intravenous; settings: in vivo
# [10] = Cmax in Han Wistar rat at 2 mg/kg, po after 8 hrs by LC/MS/MS analysis; format: ADME, organism-based; parameters: dose 2 mg/kg, route oral; settings: in vivo
# [11] = Oral bioavailability in Han Wistar rat at 2 mg/kg after 8 hrs by LC/MS/MS analysis; format: ADME, organism-based; settings: in vivo
# Cavia porcellus [12] = experiment: Ex vivo bronchodilatory activity in guinea pig assessed as protection against histamine-induced bronchospasm administered via nebulizer; format: functional
# Cavia porcellus [13] = experiment: Ex vivo bronchodilatory activity against histamine-induced bronchospasm in guinea pig assessed as time taken for 50% recovery of bronchospasm at 10-fold EC90 administered via nebulizer; format: functional
# [14] = Solubility at pH 7.4; format: physicochemical; settings: buffer
# [15] = Oral bioavailability in rat; format: ADME, organism-based; settings: in vivo
# Cavia porcellus [16] = experiment: Ex vivo bronchodilatory activity against histamine-induced bronchospasm in guinea pig assessed as time taken for 50% recovery of bronchospasm at EC90 administered via nebulizer; format: functional
# Beta-2 adrenergic receptor, sequence (P07550 whole entry): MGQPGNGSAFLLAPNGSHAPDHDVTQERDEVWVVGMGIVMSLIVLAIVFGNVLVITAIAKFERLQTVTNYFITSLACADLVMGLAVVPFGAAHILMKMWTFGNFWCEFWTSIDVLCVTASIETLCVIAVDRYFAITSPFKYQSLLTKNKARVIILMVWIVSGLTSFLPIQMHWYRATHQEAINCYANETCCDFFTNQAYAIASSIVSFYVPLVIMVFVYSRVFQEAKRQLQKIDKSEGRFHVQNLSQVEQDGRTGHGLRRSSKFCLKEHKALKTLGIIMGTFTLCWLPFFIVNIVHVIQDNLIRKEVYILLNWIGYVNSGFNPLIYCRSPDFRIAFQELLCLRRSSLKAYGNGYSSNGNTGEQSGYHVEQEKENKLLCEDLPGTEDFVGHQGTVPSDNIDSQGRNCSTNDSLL
EC50 [1],EC50 [4],EC50 [5],SMILES,other results
2.51 nM,–,–,Cc1ccc(COCCOCCCCCCNC[C@H](O)c2ccc(O)c(CO)c2)cc1,–
–,–,–,OCc1cc([C@@H](O)CNCCCCCCOCCOCc2c(Cl)cccc2Cl)ccc1O,Activity (Cavia porcellus [2]): Active; Activity (Cavia porcellus [3]): Active
–,20 nM,31.6 nM,OCc1cc([C@@H](O)CNCCCCCCOCCOCc2cccc(O)c2)ccc1O,–
1.58 nM,50.1 nM,126 nM,NS(=O)(=O)c1cccc(COCCOCCCCCCNC[C@H](O)c2ccc(O)c(CO)c2)c1,–
–,–,12600 nM,OCCOCCCCCCNC[C@H](O)c1ccc(O)c(CO)c1,–
–,–,–,O=C(O)C(c1ccccc1)(c1ccccc1)c1ccccc1.OCc1cc([C@@H](O)CNCCCCCCOCCOCc2c(Cl)cccc2Cl)ccc1O [VILANTEROL TRIFENATATE],solubility [14]: 33 µg/mL
–,–,–,OCc1cc(C(O)CNCCCCCCOCCCCc2ccccc2)ccc1O (stereo not given) [SALMETEROL],Activity (Cavia porcellus [2]): Active; Activity (Cavia porcellus [3]): Active; bioavailability [15]: 10%; EC90 (Cavia porcellus [12]): 50000 nM; Time (Cavia porcellus [16]): 10 h
7.94 nM,79.4 nM,63.1 nM,OCc1cc([C@@H](O)CNCCCCCCOCCOCc2ccc(O)cc2)ccc1O,–
–,12.6 nM,7.94 nM,OCc1cc([C@@H](O)CNCCCCCCOCCOCc2cc(Cl)ccc2Cl)ccc1O,–
–,–,–,O=C(O)/C(=C/c1ccccc1)c1ccccc1.OCc1cc([C@@H](O)CNCCCCCCOCCOCc2c(Cl)cccc2Cl)ccc1O [VILANTEROL .ALPHA.-PHENYL CINNAMATE],solubility [14]: 190 µg/mL
1.58 nM,20 nM,316 nM,NC(=O)Nc1cccc(COCCOCCCCCCNC[C@H](O)c2ccc(O)c(CO)c2)c1,–
2 nM,100 nM,398 nM,NS(=O)(=O)c1ccc(COCCOCCCCCCNC[C@H](O)c2ccc(O)c(CO)c2)cc1,–
2.51 nM,–,–,OCc1cc([C@@H](O)CNCCCCCCOCCOCc2ccc(Cl)cc2)ccc1O,–

SMILES,EC50 [1],EC50 [4],EC50 [5],other results
CC(=O)O.OCc1cc([C@@H](O)CNCCCCCCOCCOCc2cccc3ccccc23)ccc1O,0.126 nM,12.6 nM,5.01 nM,Time [6]: 10.2 min; Activity (Cavia porcellus [2]): Active; Activity (Cavia porcellus [3]): Active
CS(=O)(=O)Nc1cccc(COCCOCCCCCCNC[C@H](O)c2ccc(O)c(CO)c2)c1,0.251 nM,12.6 nM,79.4 nM,–
CC(=O)O.Cc1cc(C)cc(COCCOCCCCCCNC[C@H](O)c2ccc(O)c(CO)c2)c1,–,7.94 nM,5.01 nM,Time [6]: 6.9 min; Activity (Cavia porcellus [2]): Active
CC(=O)O.OCc1cc([C@@H](O)CNCCCCCCOCCOCc2c(Cl)cccc2Cl)ccc1O [VILANTEROL ACETATE],–,–,794 nM,Time [6]: 6.6 min; clearance [7]: 123 mL/min/kg; Vd [8]: 4.4 L/kg; half-life [9]: 48 min; Cmax [10]: < 2 ng/mL; bioavailability [11]: < 5%; EC90 (Cavia porcellus [12]): 30000 nM; Time (Cavia porcellus [13]): 17 h
CC(=O)O.OCc1cc([C@@H](O)CNCCCCCCOCCOCc2ccccc2)ccc1O,2.51 nM,31.6 nM,39.8 nM,Time [6]: 4.8 min; Activity (Cavia porcellus [3]): Active
